Read-outs that look alike come from different tables or passages of the source.
Experiments:
[1] = system: test subject; assay: Bicycle ergometer test at 100 W: antagonism between inactive (1st dosage) and active (2nd dosage) substances (Example 1b); assay type: in vivo, human; conditions: for Average heart rate after 1st dosage: 10-minute test at 100 W; for Average heart rate before: 10-minute control test at 100 W before the 1st dosage; for Change in the oxygen consumption after 2nd dosage: relative to after 1st dosage
Procedure: (§1) 13 to Mar. 6, 1999, with a subject in good physical condition under standard conditions. The subject was required each morning in the fasting state to perform successively (without interruption) at mechanical power output of 100 W, 125 W and 150 W, each lasting 10 minutes (total test duration 30 minutes each time). […] The heat production induced by mechanical exertion was calculated from the changes in the heart rate. An alternative possibility is also to determine it on the basis of the increase in humidity caused by the perspiration (the tests are carried out in a closed room) or reduction in weight (1 g of water=2.26 kJ). […] The values indicated in table la for the “average heart rate” are in each case averages over the 30-minute duration of the test; relative values for the oxygen consumption were established on the basis of the heart rates in a known manner, and the relative values indicated in Table 1a are based on the oxygen consumption on the first day (=100%); the values listed in the column “heat production” in Table 1a give the percentage deviation of the heat production, established on the basis of the perspiration, from the average from all the tests.
(§2) It is known that the oxygen uptake can be determined by measuring the heart rate as a function of the mechanical exertion. This ergometric method is based on establishing the oxygen transport volume through the action of the heart. Since the stroke volume is essentially constant irrespective of the intensity of the mechanical work, and the increased oxygen demand caused by the increase in work results in an increase in the heart rate, the quantity of the transported oxygen can be established by determining the additional heartbeats caused by the work. A 3-stage ergometer as recommended by the World Health Organization (WHO) is used in physiology research institutes and fitness clubs around the world.

[2] = Oxygen-sparing action during physical work, general findings in the description; assay type: in vivo; conditions: result in words; for Oxygen demand after administration: even occasionally increased
[3] = system: test subject; assay type: in vivo, human; conditions: Homo sapiens, 10 min
[4] = system: test subject; assay: Bicycle ergometer test at 100 W: active ingredient, sucrose, further active ingredient, amino acid/vitamin product (Example 1c); assay type: in vivo, human; conditions: for Average heart rate after 4th dos.: 4th dosage 100 mg of Na glutamate, 0.3 mg of folic acid, 5 μg of cyanocobalamin in 10 mg of gelatin; for Average heart rate after 2nd dos.: then 2nd dosage 2.5 g of sucrose
Procedure: as §1, §2

[5] = system: test subject; assay: as above; assay type: in vivo, human; conditions: for Change in oxygen consumption after 2nd dos.: 2nd dosage 2.5 g of sucrose; for Change in oxygen consumption after 2nd dos. / Change in oxygen consumption after 4th dos. / Change in oxygen consumption after 3rd dos.: relative to preceding dosage; for Change in oxygen consumption after 4th dos.: 4th dosage Na glutamate/folic acid/cyanocobalamin/gelatin; for Average heart rate after 1st dos.: 10-minute test at 100 W
[6] = 1st dosage 10 mg in 20 ml of water
[7] = Homo sapiens, 1st dosage 10 mg, 100 W, read-out: Change in the oxygen consumption after 1st dosage
[8] = read-out: Change in the oxygen demand
[9] = read-out: Heat production (deviation from the average of all the tests)
[10] = 2nd dosage 1 mg, after 50 mg of opipramol, 100 W
[11] = 2nd dosage 1 mg, after 1st dosage of 50 mg of opipramol, 100 W
[12] = 3rd dosage further 1 mg of active ingredient after sucrose
[13] = after 1 mg of active ingredient
[14] = 1st dosage 1 mg as dilute aqueous solution
[15] = 3rd dosage further 1 mg of active ingredient

Structure (SMILES): Cl.Cl.OCCN1CCN(CCC=C2c3ccccc3Sc3ccc(C(F)(F)F)cc32)CC1 (mixture of isomers) [flupentixol]
- Average heart rate after 1st dosage ([1]; 1st dosage 0.5 mg in 20 ml of water): 118.4 per minute
- Change in the oxygen consumption after 1st dosage ([1]; 1st dosage 0.5 mg, 100 W): +32%
- Average heart rate before [1]: 102.6 per minute
- Oxygen demand after administration [2]: not reduced

Structure (SMILES): CN(C)CCC=C1c2ccccc2CCc2ccccc21 [amitriptyline]
- Average heart rate after 1st dosage [1, 6]: 119.3 per minute
- change in vivo at 10 mg [1, 7]: 71%
- Oxygen demand after administration [2]: not reduced

Structure (SMILES): O=C1CN=C(c2ccccn2)c2cc(Br)ccc2N1 [bromazepam]
- change in vivo at 1 mg [3, 8]: 0%
- change in vivo at 1 mg [3, 9]: 6%
- Average heart rate after 1st dosage ([1]; 1st dosage 3 mg in 20 ml of water): 129.3 per minute
- change in vivo at 3 mg ([1]; Homo sapiens, 1st dosage 3 mg, 100 W, read-out: Change in the oxygen consumption after 1st dosage): 23%
- Oxygen demand after administration [2]: not reduced

Structure (SMILES): CCOC(=O)n1ccn(C)c1=S [carbimazole]
- Suitability for reducing the oxygen consumption during physical work [2]: suitable

Structure (SMILES): CNC1=Nc2ccc(Cl)cc2C(c2ccccc2)=[N+]([O-])C1 [chlordiazepoxide]
- change in vivo at 1 mg [3, 8]: 0%
- change in vivo at 1 mg [3, 9]: 14%
- Average heart rate after 1st dosage ([1]; 1st dosage 5 mg in 20 ml of water): 126.4 per minute
- change in vivo at 5 mg ([1]; Homo sapiens, 1st dosage 5 mg, 100 W, read-out: Change in the oxygen consumption after 1st dosage): 29%

Structure (SMILES): CN(C)CC/C=C1/c2ccccc2Sc2ccc(Cl)cc21 [chlorprothixen, chlorprothixene]
- Average heart rate after 1st dosage [1, 6]: 124.6 per minute
- Change in the oxygen consumption after 1st dosage ([1]; 1st dosage 10 mg, 100 W): +46%
- Average heart rate before [1]: 101.7 per minute
- Oxygen demand after administration [2]: not reduced

Structure (SMILES): CN1CCC[C@@H]1CCO[C@](C)(c1ccccc1)c1ccc(Cl)cc1 [clemastine]
- Suitability for reducing the oxygen consumption during physical work [2]: suitable

Structure (SMILES): CN1C(=O)CC(=O)N(c2ccccc2)c2cc(Cl)ccc21 [clobazam]
- change in vivo at 1 mg [3, 8]: -51%
- change in vivo at 1 mg [3, 9]: -49%

Structure (SMILES): CN(C)CCCN1c2ccccc2CCc2ccc(Cl)cc21 [clomipramine]
- Average heart rate after 1st dosage ([1]; 1st dosage 25 mg in 20 ml of water): 134.8 per minute
- change in vivo at 25 mg ([1]; Homo sapiens, 1st dosage 25 mg, 100 W, read-out: Change in the oxygen consumption after 1st dosage): 42%
- Oxygen demand after administration [2]: not reduced

Structure (SMILES): CN1CCN(C2=Nc3ccccc3Sc3ccc(Cl)cc32)CC1 [clothiapine]
- Change in the oxygen consumption after 2nd dosage ([1]; 2nd dosage 1 mg, after 25 mg of clomipramine, 100 W): −70%
- Change in the oxygen consumption after 2nd dosage [1, 10]: −65%
- Average heart rate after 2nd dosage ([1]; 2nd dosage 1 mg, after 1st dosage of 25 mg of clomipramine, 100 W): 100.0 per minute
- Average heart rate after 2nd dosage [1, 11]: 88.9 per minute
- Average heart rate after 4th dos. ([4]; 1 mg series): 82.2 per minute
- Average heart rate after 3rd dos. [4, 12]: 113.9 per minute
- Average heart rate after 2nd dos. [4, 13]: 112.4 per minute
- Suitability for reducing the oxygen consumption during physical work [2]: suitable
- Change in oxygen consumption after 2nd dos. ([5]; 1 mg series): +78%
- Change in oxygen consumption after 4th dos. ([5]; 1 mg series): −63%
- Average heart rate after 1st dos. [5, 14]: 73.2 per minute
- Change in oxygen consumption after 3rd dos. [5, 15]: +3%

Structure (SMILES): CN1CCC(=C2c3ccccc3C=Cc3ccccc32)CC1 [cyproheptadine]
- Change in the oxygen consumption after 2nd dosage ([1]; 2nd dosage 0.2 mg, after 5 mg of chlordiazepoxide, 100 W): −76%
- Change in the oxygen consumption after 2nd dosage ([1]; 2nd dosage 0.2 mg, after 10 mg of amitriptyline, 100 W): −63%
- Average heart rate after 2nd dosage ([1]; 2nd dosage 0.2 mg, after 1st dosage of 5 mg of chlordiazepoxide, 100 W): 88.5 per minute
- Average heart rate after 2nd dosage ([1]; 2nd dosage 0.2 mg, after 1st dosage of 10 mg of amitriptyline, 100 W): 87.6 per minute
- Average heart rate after 4th dos. ([4]; 0.2 mg series): 83.9 per minute
- Average heart rate after 3rd dos. ([4]; 3rd dosage further 0.2 mg of active ingredient after sucrose): 106.4 per minute
- Average heart rate after 2nd dos. ([4]; after 0.2 mg of active ingredient): 109.1 per minute
- Change in oxygen consumption after 2nd dos. ([5]; 0.2 mg series): +69%
- Change in oxygen consumption after 4th dos. ([5]; 0.2 mg series): −45%
- Average heart rate after 1st dos. ([5]; 1st dosage 0.2 mg as dilute aqueous solution): 74.7 per minute
- Change in oxygen consumption after 3rd dos. ([5]; 3rd dosage further 0.2 mg of active ingredient): −5%

Structure (SMILES): CN(C)CCN1C(=O)c2ccccc2N(C)c2ccccc21 [dibenzepin]
- Change in the oxygen consumption after 2nd dosage [1, 10]: −59%
- Average heart rate after 2nd dosage [1, 11]: 88.3 per minute
- Average heart rate after 4th dos. ([4]; 1 mg series): 86.4 per minute
- Average heart rate after 3rd dos. [4, 12]: 115 per minute
- Average heart rate after 2nd dos. [4, 13]: 111.5 per minute
- Suitability for reducing the oxygen consumption during physical work [2]: suitable
- Change in oxygen consumption after 2nd dos. ([5]; 1 mg series): +69%
- Change in oxygen consumption after 4th dos. ([5]; 1 mg series): −57%
- Average heart rate after 1st dos. [5, 14]: 77.2 per minute
- Change in oxygen consumption after 3rd dos. [5, 15]: 0%

Structure (SMILES): COc1ccc2c3c1O[C@H]1[C@@H](O)CC[C@H]4[C@@H](C2)N(C)CC[C@@]341 [dihydrocodeine]
- Suitability for reducing the oxygen consumption during physical work [2]: suitable

Structure (SMILES): CN(C)CCOC(C)(c1ccccc1)c1ccccn1 (stereo not shown) [doxylamine]
- Oxygen demand after administration [2]: not reduced

Structure (SMILES): CN1C(=O)CN=C(c2ccccc2F)c2cc([N+](=O)[O-])ccc21 [flunitrazepam]
- change in vivo at 1 mg [3, 8]: -39%
- change in vivo at 1 mg [3, 9]: -40%
- Suitability for reducing the oxygen consumption during physical work [2]: suitable

Structure (SMILES): O=C1Nc2ccc(Cl)cc2C(c2ccccc2Cl)=NC1O (stereo not shown) [lorazepam]
- Average heart rate after 1st dosage ([1]; 1st dosage 1 mg in 20 ml of water): 121.5 per minute
- change in vivo at 1 mg ([1]; Homo sapiens, 1st dosage 1 mg, 100 W, read-out: Change in the oxygen consumption after 1st dosage): 34%
- Oxygen demand after administration [2]: not reduced

Structure (SMILES): CN1CC[C@]23c4c5ccc(O)c4O[C@H]2[C@@H](O)C=C[C@H]3[C@H]1C5 [morphine]
- Suitability for reducing the oxygen consumption during physical work [2]: suitable

Structure (SMILES): O=C1CN=C(c2ccccc2)c2cc([N+](=O)[O-])ccc2N1 [nitrazepam]
- change in vivo at 1 mg [3, 8]: 0%
- change in vivo at 1 mg [3, 9]: 7%
- Average heart rate after 1st dosage [1, 6]: 131.4 per minute
- change in vivo at 10 mg [1, 7]: 21%
- Oxygen demand after administration [2]: not reduced

Structure (SMILES): COc1ccc2c(c1OC)C(=O)O[C@@H]2[C@H]1c2c(cc3c(c2OC)OCO3)CCN1C [noscapine]
- Suitability for reducing the oxygen consumption during physical work [2]: suitable

Structure (SMILES): OCCN1CCN(CCCN2c3ccccc3C=Cc3ccccc32)CC1 [opipramol]
- Oxygen demand after administration [2]: not reduced

Structure (SMILES): O=C1Nc2ccc(Cl)cc2C(c2ccccc2)=NC1O (stereo not shown) [oxazepam]
- change in vivo at 1 mg [3, 8]: 0%
- change in vivo at 1 mg [3, 9]: 7%
- change in vivo at 7 mg ([1]; Homo sapiens, 1st dosage 7 mg, 100 W, read-out: Change in the oxygen consumption after 1st dosage): 33%

Structure (SMILES): CSc1ccc2c(c1)N(CCC1CCCCN1C)c1ccccc1S2 (stereo not shown) [thioridazine]
- Change in the oxygen consumption after 2nd dosage ([1]; 2nd dosage 1 mg, after 10 mg of imipramine, 100 W): −56%
- Average heart rate after 2nd dosage ([1]; 2nd dosage 1 mg, after 1st dosage of 10 mg of imipramine, 100 W): 81.5 per minute
- Average heart rate after 4th dos. ([4]; 1 mg series): 86.5 per minute
- Average heart rate after 3rd dos. [4, 12]: 111.2 per minute
- Average heart rate after 2nd dos. [4, 13]: 111.0 per minute
- Suitability for reducing the oxygen consumption during physical work [2]: suitable
- Change in oxygen consumption after 2nd dos. ([5]; 1 mg series): +69%
- Change in oxygen consumption after 4th dos. ([5]; 1 mg series): −49%
- Average heart rate after 1st dos. [5, 14]: 76.3 per minute
- Change in oxygen consumption after 3rd dos. [5, 15]: 0%

Structure (SMILES): CN1CCN(C(=O)OC2c3nccnc3C(=O)N2c2ccc(Cl)cn2)CC1 (stereo not shown) [zopiclone]
- change in vivo at 1 mg [3, 9]: -44%
- Suitability for reducing the oxygen consumption during physical work [2]: suitable

— patent publication US6703371B1, “Preparations for reducing oxygen consumption during physical efforts” (priority 1999, dated 2004)
